Data: ChEMBL document CHEMBL2095176, “GSK Tuberculosis Screening Data”
Values after ≈ are worked out from the molar mass of the structure shown.

Columns and labels:
[1] = physchem; settings: phosphate buffered saline, pH 7.4
[2] = system: Mycobacterium tuberculosis H37Rv; assay: microbe, parasite or virus in culture
Description: GSK_TB: Intracellular minimum inhibitory concentration (MIC) H37Rv assay

[3] = physchem; settings: buffer, pH 7.4
Description: GSK_TB: GSK in-house hydrophobicity assay at pH7.4 (logD)

[4] = physchem; settings: octanol/water
Description: GSK_TB: GSK in-house hydrophobicity assay (logP)

Compound | solubility kinetic [1] | MIC90 [2] | logD [3] | logP [4]
N#Cc1nc(-c2ccccc2F)oc1NCCc1ccccc1 | 3 µM (≈ 0.922 µg/mL) | 2.79 µM (≈ 0.856 µg/mL) | 6.37 | 6.63
CCOC(=O)c1cc(-c2csc(Nc3c(C)cc(C)cc3C)n2)on1 | 1 µM (≈ 0.357 µg/mL) | 4.07 µM (≈ 1.46 µg/mL) | 7.12 | 7.45
O=C(c1cnn(C(=O)c2ccco2)c1)c1cc(F)ccc1O | 1 µM (≈ 0.3 µg/mL) | 9.55 µM (≈ 2.87 µg/mL) |  | 
c1ccc(-c2nc(N3CCCCCC3)nc(-n3ccnc3)n2)cc1 | 1 µM (≈ 0.32 µg/mL) | 7.41 µM (≈ 2.38 µg/mL) |  | 
CNc1nc(SC)nc2ccccc12 |  | 0.2 µM (≈ 0.0411 µg/mL) |  | 
Cc1nnc(NCc2cccc(Cl)c2)c2ccccc12 | 127 µM (≈ 36 µg/mL) | 5.9 µM (≈ 1.67 µg/mL) | 4.32 | 4.52
O=C(NC1=NCCS1)c1sc2cc(F)ccc2c1Cl | 1 µM (≈ 0.315 µg/mL) | 8.61 µM (≈ 2.71 µg/mL) | 5.16 | 5.49
CCc1nnc(NC(=O)c2cccc(C(=O)Nc3nnc(CC)s3)n2)s1 | 26 µM (≈ 10.1 µg/mL) | 8 µM (≈ 3.12 µg/mL) |  | 
COc1ccc(-c2cc(=O)c3cc(OCC(=O)OC(C)C)ccc3o2)cc1 |  | 2.95 µM (≈ 1.09 µg/mL) | 5.91 | 6.29
O=C(Nc1nnc(-c2ccc(Cl)cc2)o1)c1cccc(C(F)(F)F)c1 | 1 µM (≈ 0.368 µg/mL) | 5.62 µM (≈ 2.07 µg/mL) | 4.51 | 6.29
COc1ccc(-c2cncc(-c3cc(N4CCN(CCO)CC4)nc(-c4ccccc4)n3)c2)cc1 | 1 µM (≈ 0.468 µg/mL) | 1.45 µM (≈ 0.676 µg/mL) | 5.91 | 6.34
Br.Cc1cc(C)cc(OCCCON2C(=N)N=C(N)NC2(C)C)c1 | 358 µM | 5.31 µM | 3.2 | 4.72
Cc1ccc(C2CC(C(F)(F)F)n3ncc(C(=O)NCc4ccc5c(c4)OCO5)c3N2)cc1 (centres undefined) |  | 5.4 µM (≈ 2.48 µg/mL) |  | 
Cc1ccc2nc(C)c(C(=O)NCc3cccs3)n2c1 |  | 0.2 µM (≈ 0.0571 µg/mL) |  | 
Nc1cccnc1Nc1ccc(Cl)cc1 | 94 µM (≈ 20.6 µg/mL) | 0.232 µM (≈ 0.0509 µg/mL) |  | 
COc1ccc2nc(C)cc(OCC(=O)Nc3cc(C)cc(C)c3)c2c1 |  | 0.3 µM (≈ 0.105 µg/mL) |  | 
Cc1cccc(-c2nc(Nc3ccncn3)c3c(C)csc3n2)n1 |  | 0.3 µM (≈ 0.1 µg/mL) |  | 
Nc1nc2cc(-c3cncc(Oc4ccc(F)cc4)c3)ccc2[nH]1.O=C(O)C(F)(F)F.O=C(O)C(F)(F)F | 100 µM | 0.347 µM | 3.11 | 3.12
COc1ccc2nc(C)cc(OCC(=O)Nc3ccccc3OC)c2c1 |  | 0.4 µM (≈ 0.141 µg/mL) |  | 
Cc1cc(/C=C/c2cccc(C(=O)O)c2)cc(Cl)c1OC[C@@H]1CCCN1C | 486 µM (≈ 188 µg/mL) | 0.457 µM (≈ 0.176 µg/mL) |  | 

Compound | solubility kinetic [1] | MIC90 [2] | logD [3] | logP [4]
Cc1ccccc1CN1CCC(O)(c2ccc(Cl)c(C(F)(F)F)c2)CC1 | 77 µM (≈ 29.6 µg/mL) | 4.2 µM (≈ 1.61 µg/mL) |  | 
N=C(N)c1ccc(CCN2CCC(c3nc(COCC(F)(F)F)c(-c4ccc(F)cc4)o3)CC2)cc1.O=C(O)C(F)(F)F.O=C(O)C(F)(F)F | 255 µM | 6.17 µM | 3.76 | 6.14
Nc1ccccc1Nc1ccc2c(c1)OCO2 | 139 µM (≈ 31.7 µg/mL) | 1.82 µM (≈ 0.415 µg/mL) |  | 
Nc1cccnc1Nc1ccc(C(F)(F)F)cc1 | 328 µM (≈ 83.1 µg/mL) | 2.24 µM (≈ 0.567 µg/mL) | 4.97 | 5.03
COc1cccc(-c2nc3c(N4CCCC4)cccc3n2CC2CCCN2)n1.O=C(O)C(F)(F)F (centres undefined) | 78 µM | 9.77 µM |  | 
Cn1c(=O)c2c([S+](C)[O-])snc2n(C)c1=O (centres undefined) | 420 µM (≈ 109 µg/mL) | 9.77 µM (≈ 2.53 µg/mL) | 1.24 | 1.24
Cc1cc(OCC(=O)NCc2ccccc2)c2cc(Br)ccc2n1 | 15 µM (≈ 5.78 µg/mL) | 2.3 µM (≈ 0.886 µg/mL) | 4.97 | 5.13
c1ccc(SCc2nn3c(-c4ccccc4)nnc3s2)cc1 | 1 µM (≈ 0.324 µg/mL) | 2.69 µM (≈ 0.873 µg/mL) | 5.44 | 5.78
Cc1cccc(-c2nc(Nc3ccncn3)c3sccc3n2)n1 |  | 0.5 µM (≈ 0.16 µg/mL) |  | 
CCc1ccc(CN2CCC3(CC2)OCCc2sccc23)s1 |  | 1 µM (≈ 0.334 µg/mL) |  | 
c1cc2c(s1)CCOC21CCN(Cc2ccc3c(c2)OCCO3)CC1 |  | 1 µM (≈ 0.357 µg/mL) |  | 
O=C(NC12CC3CC(CC(C3)C1)C2)c1cc2cc(Cl)ccc2[nH]1 |  | 1 µM (≈ 0.329 µg/mL) |  | 
COc1ccc(Nc2ccccc2NC(=O)c2ccc(O)nc2)cc1 | 362 µM (≈ 121 µg/mL) | 7.08 µM (≈ 2.37 µg/mL) | 2.92 | 2.97
Cc1ccc(CNC(=O)c2cnn3c2NC(c2ccc(C)cc2)CC3C(F)F)cc1 (centres undefined) | 1 µM (≈ 0.41 µg/mL) | 1.23 µM (≈ 0.505 µg/mL) | 6.84 | 7.09
CCCCS(=O)(=O)Nc1ccc2cnn(C)c2c1 | 552 µM (≈ 148 µg/mL) | 1.3 µM (≈ 0.348 µg/mL) | 3.48 | 3.58
O=C(NC(Cc1ccccc1)C(=O)Nc1ccccc1N1CCOCC1)c1cccs1 (centres undefined) | 64 µM (≈ 27.9 µg/mL) | 7.6 µM (≈ 3.31 µg/mL) | 5.53 | 5.78
O=C(Nc1nnc(-c2ccc(Cl)s2)o1)c1ccc(Cl)s1 |  | 7.76 µM (≈ 2.69 µg/mL) |  | 
CCCOC(=O)COc1ccc2c(=O)c(-c3ccccc3OC)coc2c1 |  | 7.94 µM (≈ 2.93 µg/mL) | 6 | 6.24
O=C(c1[nH]nc2c1CCCC2)N1CCN(Cc2ccc3c(c2)OCO3)CC1 |  | 4.5 µM (≈ 1.66 µg/mL) |  | 
c1ncn(-c2ccc(COc3ccc(-n4cncn4)cc3)cc2)n1 |  | 4.73 µM (≈ 1.51 µg/mL) |  | 

Compound | solubility kinetic [1] | MIC90 [2] | logD [3] | logP [4]
NC(=O)c1cc(-c2ccsc2)ccc1OCCOc1ccccc1 | 1 µM (≈ 0.339 µg/mL) | 3.5 µM (≈ 1.19 µg/mL) | 5.44 | 5.78
Br.CC1(C)NC(N)=NC(=N)N1OCCCOc1ccc(Cl)cc1Cl | 337 µM | 3.55 µM | 3.39 | 4.83
O=C(OCc1c(F)cccc1Cl)c1ccc(-n2ncc(Cl)c(Cl)c2=O)cc1 | 22 µM (≈ 9.41 µg/mL) | 4.9 µM (≈ 2.09 µg/mL) |  | 
CCc1ccc([C@@H]2C[C@H](C(F)(F)F)n3ncc(C(=O)NCc4ccc(OC)cc4)c3N2)cc1 |  | 4.9 µM (≈ 2.25 µg/mL) |  | 
O=C(CCSc1ccc(Cl)cc1)Nc1nc(-c2ccccn2)cs1 |  | 8.41 µM (≈ 3.16 µg/mL) |  | 
O=C(C=Cc1ccccc1)N1CCN(Cc2ccc3c(c2)OCO3)CC1 |  | 3.7 µM (≈ 1.3 µg/mL) | 5.16 | 5.44
Cc1cc(CN2CCC3(CC2)OCCc2sccc23)oc1C | 289 µM (≈ 91.7 µg/mL) | 3.7 µM (≈ 1.17 µg/mL) |  | 
CSc1cccc(C(=O)Nc2nc(-c3ccccn3)cs2)c1 | 12 µM (≈ 3.93 µg/mL) | 3.72 µM (≈ 1.22 µg/mL) | 5.25 | 5.26
CSc1ccc(C(=O)Nc2nc(-c3ccccn3)cs2)cc1 |  | 8.71 µM (≈ 2.85 µg/mL) | 5.07 | 5.06
COc1ccc(CCNc2cc(-c3ccccc3)nc3ncnn23)cc1 |  | 0.6 µM (≈ 0.207 µg/mL) |  | 
Br.CCc1ccccc1OCCCON1C(=N)N=C(N)NC1(C)C | 225 µM | 3.2 µM | 3.3 | 4.83
Br.CC1(C)N=C(N)N=C(N)N1OCCc1ccc2ccccc2c1 | 201 µM | 2.32 µM | 2.92 | 4.23
Br.CCCc1cc(C(C)=O)ccc1OCCCON1C(=N)N=C(N)NC1(C)C | 201 µM | 2.34 µM | 2.92 | 4.02
Cc1cc(NCCc2ccccc2)nc(NC(=N)Nc2ccc(Cl)cc2)n1 | 73 µM (≈ 27.8 µg/mL) | 2.37 µM (≈ 0.903 µg/mL) | 4 | 6.74
Br.Cc1ccccc1OCCCON1C(=N)N=C(N)NC1(C)C | 436 µM | 3.76 µM | 2.83 | 3.92
Clc1ccc(Nc2nc(-c3ccccn3)cs2)nc1 |  | 5.9 µM (≈ 1.7 µg/mL) | 5.35 | 6.53
Cc1csc2nc(-c3ccccn3)nc(Nc3ccncn3)c12.O=C(O)C(F)(F)F | 231 µM | 1.7 µM |  | 
Br.CC(C)(C)c1ccccc1OCCCON1C(=N)N=C(N)NC1(C)C | 363 µM | 2.3 µM | 4.04 | 6.14
CSc1ccccc1C(=O)Nc1nc(-c2ccccn2)cs1 |  | 1.74 µM (≈ 0.569 µg/mL) |  | 
Cn1cc(NC(=O)c2cc(NC(=O)CNC(=N)N)cn2C)cc1C(=O)NCCC(=N)N [NETROPSIN CHLORIDE] |  | 6.46 µM |  | 
